Data reported in patent US6162799A, “Pesticidal compounds” (BTG International Limited, priority 1995, dated 2000).
In brackets after ≈: the same amount, converted by molar mass.

How the values were obtained:
Format in all cases: in vivo
Aphis gossypiae = test: Aphicidal activity, aphid-dip; details: strain 81-171B, read-out: Aphid-dip result, % kill A.G. 81-171B
Description: (§1) Activity against resistant (R) and susceptible (S) strains of aphid (Myzus persicae) and Aphis gossypiae was assessed using the following two methods.
(§2) Entrapment rings of fluon were painted halfway up the inside of 4 cm lengths of glass tubing (1.5 cm diameter), and squares of insect-proof gauze were attached to one end of each tube by elastic bands. Fifteen apterous adults were then gently transferred into the tubes using a sable-hair brush, and the tube sealed with a second gauze square.
(§3) Tubes containing aphids were dipped into insecticide solutions for 10 seconds, dried on blotting paper, and then inverted and tapped to cause treated aphids to fall to the unimmersed end of each tube. Handling mortality (usually zero or very slight) was scored after 1 hour, when aphids were transferred onto chinese cabbage leaf-discs (35 mm diameter) on an agar bed (25 mm in depth) in disposible plastic containers (30 mm high) and confined by applying a ring of fluon to the exposed lip of the container. Containers were stored upright, without lids, in a constant environment facility maintained at 25° C. under continuous room lighting. Mortality was assessed at 24, 48 and 72 hours. Two replicates of 15 aphids each were used at each dose rate and 5 or 6 dose rates were used per compound under test.
(§4) The values given are % mortality corrected for control data. The control comprised the test solution without active ingredient.

Musca domestica = test: Topical test on houseflies (MD); details: houseflies, topical on thorax; kill assessed 24 and 48 h
Description: (§5) Pesticidal activity was assessed against houseflies, mustard beetles, mites and whitefly using the following methods.
Houseflies (MD) (Musca domestica)
Female flies were treated on the thorax with a one microliter drop of test compound dissolved in acetone. Two replicates of 15 flies were used at each dose rate and 6 dose rates were used per compound under test. After treatment, the flies were maintained at a temperature of 20°±1° C. and kill was assessed 24 and 48 hours after treatment. LD50 values were calculated in micrograms of test compound per fly (see Sawicki et al., Bulletin of the World Health Organisation, 35, 893 (1966) and Sawicki et al., Entomologia and Exp. Appli 10, 253, (1967).
(§6) The values given are LD50 (μg/insect) or LC50 (ppm solution of test compound) unless otherwise specified.

Myzus persicae [1] = test: Aphicidal activity, topical application; details: 72 h
Description: as §1
Batches of 10-15 apterous adults were removed from stock cultures and placed on leaf discs (35 mm in diameter) cut from chinese cabbage and held on an agar bed (25 mm deep) in disposable plastic containers (30 mm high). Using a Burkhard micro-applicator aphids were dosed individually with a 0.25 μm droplet of chemical diluted to the required concentration in acetone. control insects were dosed with acetone only. Mortality and other effects were scored at 24 hour intervals up to and including 72 hour post-treatment, the end-point to which the results relate.
(§7) The test was carried out using a susceptible strain of aphids (US1L) collected in the field in East Anglia, UK and an extremely resistant strain of aphids (794Jz) (R^3 esterase, sensitive ACHE) collected from glasshouses in the UK.
as §4

Bemisia tabaci = test: Film/vial test on whitefly (BT), susceptible strain SUD-S; details: 48 h; for LC50: read-out: BT (SUD-S) (LC50); for mortality at 100 ppm: read-out: BT (SUD-S) kill at 100 ppm
Description: as §5
Whitefly (BT) (Bemisia tabaci)
Acetone solutions (0.100 ml) of the test compounds were placed in 10 ml glass vials and evaporated with rotation to deposit a film of the compound. Thirty adult whiteflies were placed inside the vial, then after 60 minutes, the treated insects were transferred onto untreated cotton leaf discs which were kept moist on a bed of agar gel. The temperature was maintained at 25° C. and mortality assessed after 48 hours. Three replicates were used at each of 5 to 7 dose levels per compound. LC50 values were calculated by using a computer software package ("Polo-PC" available from LeOra Software, Berkeley, Calif.). (See M. R. Cahill and B. Hackett in Proceedings Brighton Crop Protection Conference, 1992). The test was carried out using a susceptible strain of whitefly (SUD-S) which was collected in Sudan in 1978 from cotton.
as §6

Myzus persicae [2] = test: Aphicidal activity, aphid-dip; details: susceptible strain USIL, read-out: Aphid-dip result, % kill M.P. USIL
Description: as §1, §2, §3, §7, §4

Tetranychus urticae = test: Immersion test on mites (TU), susceptible strain GSS; details: 72 h, read-out: TU (GSS) (LC50)
Description: as §5
Mites (TU) (Tetranychus urticae)
25 adult female mites were immersed in 35 μl of a solution of the test compound in a 1:4 acetone-water mixture for 30 seconds. The treated insects were maintained at 21°±2° C. and kill was assessed 72 hours after treatment. […] Three replicates of 25 mites each were used at each dose rate and 5 or 6 dose rates were used per compound under test. LC50 values were calculated in ppm of the solution of the test compound per insect. The test was carried out using a susceptible strain of mites (GSS) supplied by Schering, AG, Berlin.
as §6

Phaedon cochleariae Fab = test: Topical test on mustard beetles (PC); details: mustard beetles, topical, 48 h
Description: as §5
Mustard beetles (PC) (Phaedon cochleariae Fab)
A one microliter drop of an acetone solution of the test compound was applied ventrally to adult mustard beetles using a micro drop applicator. The treated insects were maintained for 48 hours after which time kill was assessed. Two replicates each of 20 to 25 mustard beetles were used at each dose level and 5 dose levels were treated comparably. LD50 values were calculated as for houseflies.
as §6

[3] = susceptible strain USIL, read-out: Topical aphid results, % kill M.P. USIL
[4] = resistant strain 794JZ, read-out: Topical aphid results, % kill M.P. 794JZ

SMILES	mortality at 100 ppm (Myzus persicae [1]; [3]) [%]	LC50 (Bemisia tabaci) [µg/mL]	LC50 (Tetranychus urticae) [µg/mL]	other results
C[Si](C)(C)CCCCCCCC1=C(O)C(=O)c2ccccc2C1=O [Example 10]	100	8.2 (≈ 23.8 µM)	0.31 (≈ 0.9 µM)	mortality at 100 ppm (Aphis gossypiae): 100%; MD (LD50) (Musca domestica): 1.7 μg/insect; mortality at 100 ppm (Myzus persicae [2]): 100%
C[Si](C)(C)CCCCCCCCC1=C(O)C(=O)c2ccccc2C1=O [Example 11]	100	14.6 (≈ 40.7 µM)	0.51 (≈ 1.42 µM)	mortality at 100 ppm (Aphis gossypiae): 100%; MD (LD50) (Musca domestica): 2.3 μg/insect; mortality at 100 ppm (Myzus persicae [1]; [4]): 95%; mortality at 100 ppm (Myzus persicae [2]): 100%
C[Si](C)(C)CCCCCCCCCCC1=C(O)C(=O)c2ccccc2C1=O [Example 13]	90		2.2 (≈ 5.69 µM)	mortality at 100 ppm (Aphis gossypiae): 83%; MD (LD50) (Musca domestica): 9.9 μg/insect; mortality at 100 ppm (Myzus persicae [2]): 90%
CC[Si](C)(C)CCCCCCCCC1=C(O)C(=O)c2ccccc2C1=O [Example 14, 2-hydroxy-3(8-(dimethylethylsilyl)octyl)-1,4-naphthoquinone]	74	15 (≈ 40.3 µM)		
CC[Si](CC)(CC)CCCCCCCCC1=C(O)C(=O)c2ccccc2C1=O [Example 15]	58	22 (≈ 54.9 µM)	5.2 (≈ 13 µM)	
CCC[Si](CCC)(CCC)CCCCCCCCC1=C(O)C(=O)c2ccccc2C1=O [Example 16]	24			PC (LD50) (Phaedon cochleariae Fab): > 20 μg/insect; mortality at 100 ppm (Bemisia tabaci): 79%
CCC[Si](C)(C)CCCCCCCCC1=C(O)C(=O)c2ccccc2C1=O [Example 17]	88	13 (≈ 33.6 µM)	8.4 (≈ 21.7 µM)	
C[Si]1(CCCCCCCCC2=C(O)C(=O)c3ccccc3C2=O)CCCC1 [Example 18, 2-Hydroxy-3-(8-(1-methyl-(tetramethylenesilyl))octyl)-1,4-naphthoquinone]	59		3.6 (≈ 9.36 µM)	
C[Si]1(CCCCCCCCC2=C(O)C(=O)c3ccccc3C2=O)CCCCC1 [Example 19, 2-hydroxy-3-(8-(1-methyl-(pentamethylenesilyl))octyl)-1,4-naphthoquinone]				mortality at 100 ppm (Bemisia tabaci): 13%
C[Si](C)(C)CC=CC1=C(O)C(=O)c2ccccc2C1=O [Example 20, 2-hydroxy-3-(3-trimethylsilyl-1-propenyl)-1,4-naphthoquinone]		30 (≈ 105 µM)	21 (≈ 73.3 µM)	PC (LD50) (Phaedon cochleariae Fab): > 20 μg/insect
CC(=O)OC1=C(CCCCCCCCC[Si](C)(C)C)C(=O)c2ccccc2C1=O [Example 21, 2-ethanoyloxy-3-(9-trimethylsilylnonyl)-1,4-naphthoquinone]		< 100	2 (≈ 4.82 µM)	mortality at 100 ppm (Myzus persicae [1]; [4]): 89%; mortality at 125 ppm (Myzus persicae [1]; susceptible strain USIL, 125 ppm, read-out: Topical aphid results, % kill M.P. USIL): 66%; mortality at 100 ppm (Myzus persicae [2]): 66%
CCC(=O)OC1=C(CCCCCCCCC[Si](C)(C)C)C(=O)c2ccccc2C1=O [Example 22, 2-propanoyloxy-3-(9-trimethylsilylnonyl)-1,4-naphthoquinone]	37			
C=COC(=O)OC1=C(CCCCCCCCC[Si](C)(C)C)C(=O)c2ccccc2C1=O [Example 23, 2-vinylcarbonato-3-(9-trimethylsilylnonyl)-1,4-naphthoquinone]	63			mortality at 100 ppm (Bemisia tabaci): 32%
CCOCOC1=C(CCCCCCCCC[Si](C)(C)C)C(=O)c2ccccc2C1=O [Example 24, 2-ethoxymethoxy-3-(9-trimethylsilylnonyl)-1,4-naphthoquinone]	16			mortality at 100 ppm (Bemisia tabaci): 19%
